Data from US12059420B2 (BRISTOL-MYERS SQUIBB COMPANY, priority 2018, dated 2024).

molecular target: T1, human IDO1 (Homo sapiens, UniProt P14902); assay: IDO inhibition assay in HEK293 cells stably expressing human IDO1 (kynurenine production, Ehrlich reagent, absorbance 490 nm); type: cell-based; details: 20 hours incubation with compound, 500 nM reference standard = 100% inhibition, read-out: IDO1 HEK Human IC50
T1 construct: expressed in transfected cells
How it was run: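 HEK293 clones stably expressing human IDO1 (10,000 cells/well, phenol red-free RPMI, 10% FBS) were treated with compound for 20 hours at 37° C. After 0.2% TCA and 30 min at 50° C., kynurenine was read with Ehrlich reagent at 490 nm. IC50 was normalised to DMSO (0%) and 500 nM reference standard (100%).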

T1 sequence (P14902 whole entry): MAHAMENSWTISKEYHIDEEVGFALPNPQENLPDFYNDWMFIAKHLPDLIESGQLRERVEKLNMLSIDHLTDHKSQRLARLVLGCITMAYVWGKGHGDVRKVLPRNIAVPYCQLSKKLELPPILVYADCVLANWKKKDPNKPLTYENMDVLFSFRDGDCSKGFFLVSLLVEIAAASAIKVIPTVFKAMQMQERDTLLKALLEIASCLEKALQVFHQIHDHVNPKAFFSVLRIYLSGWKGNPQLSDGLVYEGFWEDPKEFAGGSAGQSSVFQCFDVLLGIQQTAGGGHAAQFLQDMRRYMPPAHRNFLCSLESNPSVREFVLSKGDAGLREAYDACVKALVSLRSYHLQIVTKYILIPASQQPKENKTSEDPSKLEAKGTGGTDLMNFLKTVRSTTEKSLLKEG

Compound | IC50 [nM]
CC(C)CN(Cc1ccccc1)c1cc(Nc2ncccc2F)cc(-c2ccccc2-c2nnn[nH]2)n1 [Example 178, 6-(2-(1H-tetrazol-5-yl)phenyl)-N2-benzyl-N4-(3-fluoropyridin-2-yl)-N2-isobutylpyridine-2,4-diamine] | 58.4
CC(C)CN(Cc1ccccc1)c1cc(Nc2ccccc2F)cc(-c2ccccc2-c2nnn[nH]2)n1 [Example 179, 6-(2-(1H-tetrazol-5-yl)phenyl)-N2-benzyl-N4-(2-fluorophenyl)-N2-isobutylpyridine-2,4-diamine] | 10.9
Cc1cc(F)cnc1Nc1cc(-c2ccccc2-c2nnn[nH]2)nc(N(Cc2ccccc2)CC(C)C)c1 [Example 183, 6-(2-(1H-tetrazol-5-yl)phenyl)-N2-benzyl-N4-(5-fluoro-3-methylpyridin-2-yl)-N2-isobutylpyridine-2,4-diamine] | 129
CC(C)CN(Cc1ccccc1)c1cc(Nc2cc(F)ccc2C(=O)O)cc(-c2ccccc2-c2nnn[nH]2)n1 [Example 185, 2-((2-(2-(1H-tetrazol-5-yl)phenyl)-6-(benzyl(isobutyl)amino)pyridin-4-yl)amino)-4-fluorobenzoic acid] | 2740
Cc1ccc(Nc2cc(-c3ccccc3-c3nnn[nH]3)nc(N(Cc3ccccc3)CC(C)C)c2)c(C#N)c1 [Example 187, 2-((2-(2-(1H-tetrazol-5-yl)phenyl)-6-(benzyl(isobutyl)amino)pyridin-4-yl)amino)-5-methylbenzonitrile] | 101
CC(C)CN(Cc1ccccc1)c1cc(Nc2cccc(OC(F)(F)C(F)F)c2)cc(-c2ccccc2-c2nnn[nH]2)n1 [Example 189, 6-(2-(1H-tetrazol-5-yl)phenyl)-N2-benzyl-N2-isobutyl-N4-(3-(1,1,2,2-tetrafluoroethoxy)phenyl)pyridine-2,4-diamine] | 9.3

Further lines, results first:

IC50 [nM] | Compound
10.5 | Cc1cc(Nc2cc(-c3ccccc3-c3nnn[nH]3)nc(N(Cc3ccccc3)CC(C)C)c2)ccc1C#N [Example 176, 4-((2-(2-(1H-tetrazol-5-yl)phenyl)-6-(benzyl(isobutyl)amino)pyridin-4-yl)amino)-2-methylbenzonitrile]
17.5 | CC(C)CN(Cc1ccccc1)c1cc(Nc2ccccc2Cl)cc(-c2ccccc2-c2nnn[nH]2)n1 [Example 177, 6-(2-(1H-tetrazol-5-yl)phenyl)-N2-benzyl-N4-(2-chlorophenyl)-N2-isobutylpyridine-2,4-diamine]
2.2 | CC(C)CN(Cc1ccccc1)c1cc(Nc2ccc(Cl)cc2F)cc(-c2ccccc2-c2nnn[nH]2)n1 [Example 180, 6-(2-(1H-tetrazol-5-yl)phenyl)-N2-benzyl-N4-(4-chloro-2-fluorophenyl)-N2-isobutylpyridine-2,4-diamine]
4.3 | CC(C)CN(Cc1ccccc1)c1cc(Nc2ccc(F)c(F)c2)cc(-c2ccccc2-c2nnn[nH]2)n1 [Example 181, 6-(2-(1H-tetrazol-5-yl)phenyl)-N2-benzyl-N4-(3,4-difluorophenyl)-N2-isobutylpyridine-2,4-diamine]
9.5 | CC(C)CN(Cc1ccccc1)c1cc(Nc2ccc3c(c2)OC(F)(F)O3)cc(-c2ccccc2-c2nnn[nH]2)n1 [Example 182, 6-(2-(1H-tetrazol-5-yl)phenyl)-N2-benzyl-N4-(2,2-difluorobenzo[d][1,3]dioxol-5-yl)-N2-isobutylpyridine-2,4-diamine]
3.5 | COc1ccc(Nc2cc(-c3ccccc3-c3nnn[nH]3)nc(N(Cc3ccccc3)CC(C)C)c2)c(F)c1 [Example 186, 6-(2-(1H-tetrazol-5-yl)phenyl)-N2-benzyl-N4-(2-fluoro-4-methoxyphenyl)-N2-isobutylpyridine-2,4-diamine]
2 | COc1cc(Nc2cc(-c3ccccc3-c3nnn[nH]3)nc(N(Cc3ccccc3)CC(C)C)c2)ccc1Cl [Example 188, 6-(2-(1H-tetrazol-5-yl)phenyl)-N2-benzyl-N4-(4-chloro-3-methoxyphenyl)-N2-isobutylpyridine-2,4-diamine]
